Experimental data from patent US8637676B2, “Dual-acting benzoimidazole antihypertensive agents” (Theravance, Inc., priority 2007, dated 2014).

How the values were obtained:
[1] = target: T1, NEP enzyme (Homo sapiens, UniProt P08473); assay: In vitro NEP enzyme inhibition assay (Assay 2); type: biochemical; conditions: fluorogenic peptide substrate; species of NEP (human or rat) not given; read-out: pIC50 for the NEP enzyme (converted)
T1 construct: purchased R&D Systems, Minneapolis, Minn; 1182-ZN
Experimental: The inhibitory activities of compounds at human and rat NEP and human ACE were determined using in vitro assays as described below.
Rat NEP was prepared from the kidneys of adult Sprague Dawley rats. Whole kidneys were washed in cold PBS and brought up in ice-cold lysis buffer (1% Triton X-114, 150 mM NaCl, 50 mM Tris pH 7.5; Bordier (1981) J. Biol. Chem. 256:1604-1607) in a ratio of 5 mL of buffer for every gram of kidney. Samples were homogenized using a polytron hand held tissue grinder on ice. Homogenates were centrifuged at 1000×g in a swinging bucket rotor for 5 minutes at 3° C. The pellet was resuspended in 20 mL of ice cold lysis buffer and incubated on ice for 30 minutes. […] Protein concentrations were quantitated using a BCA detection system with BSA as a standard. […]
The assays were performed in 384-well white opaque plates at room temperature using the respective fluorogenic peptides at a concentration of 10 μM in assay buffer (50 mM Tris/HCl at 25° C., 100 mM NaCl, 0.01% Tween-20, 1 μM Zn, 0.025% BSA). […] The rat NEP enzyme preparation was used at a concentration that yielded quantitative proteolysis of 3 μM of Mca-RRL within 20 minutes at room temperature.
Assays were started by adding 25 μL of enzyme to 12.5 μL of test compound at 12 concentrations (10 μM to 20 pM). […] Plates were read on a fluorometer with excitation and emission wavelengths set to 320 nm and 405 nm, respectively. […]

[2] = target: T2, human AT1 receptor (Homo sapiens, UniProt P30556); assay: AT1 radioligand binding assay (Assay 1); conditions: displacement of [Eu]AngII, membranes of CHO-K1 cells expressing human AT1 receptor; read-out: pKi at the AT1 receptor (converted)
T2 construct: expressed in transfected cells; membranes
T2 sequence (P30556 1-359): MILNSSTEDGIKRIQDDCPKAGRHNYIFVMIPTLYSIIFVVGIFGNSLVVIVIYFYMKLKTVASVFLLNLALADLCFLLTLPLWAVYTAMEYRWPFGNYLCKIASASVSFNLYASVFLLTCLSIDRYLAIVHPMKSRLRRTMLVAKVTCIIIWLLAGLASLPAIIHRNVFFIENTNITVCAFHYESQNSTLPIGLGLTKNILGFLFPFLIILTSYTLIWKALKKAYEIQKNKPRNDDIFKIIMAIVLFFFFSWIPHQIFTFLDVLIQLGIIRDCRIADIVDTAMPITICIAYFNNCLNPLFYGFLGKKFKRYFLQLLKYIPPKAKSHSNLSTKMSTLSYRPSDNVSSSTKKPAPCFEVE
Experimental: These in vitro assays were used to assess the ability of test compounds to bind to the AT1 and the AT2 receptors.
Membrane Preparation From Cells Expressing Human AT1 or AT2 Receptors
Chinese hamster ovary (CHO-K^1) derived cell lines stably expressing the cloned human AT1 or AT2 receptors, respectively, were grown in HAM's-F12 medium supplemented with 10% fetal bovine serum, 10 μg/ml penicillin/streptomycin, and 500 μg/ml geneticin in a 5% CO2 humidified incubator at 37° C. AT2 receptor expressing cells were grown in the additional presence of 100 nM PD123,319 (AT2 antagonist). When cultures reached 80-95% confluence, the cells were washed thoroughly in PBS and lifted with 5 mM EDTA. Cells were pelleted by centrifugation and snap frozen in MeOH-dry ice and stored at −80° C. until further use.
For membrane preparation, cell pellets were resuspended in lysis buffer (25 mM Tris/HCl pH 7.5 at 4° C., 1 mM EDTA, and one tablet of Complete Protease Inhibitor Cocktail Tablets with 2 mM EDTA per 50 mL buffer (Roche cat.#1697498, Roche Molecular Biochemicals, Indianapolis, Ind.)) and homogenized using a tight-fitting Dounce glass homogenizer (10 strokes) on ice. The homogenate was centrifuged at 1000×g, the supernatant was collected and centrifuged at 20,000×g. […] Protein concentration of the membrane suspension was determined by the method described in Bradford (1976) Anal Biochem. 72:248-54. […]

T1 sequence (P08473 52-750 limits assumed): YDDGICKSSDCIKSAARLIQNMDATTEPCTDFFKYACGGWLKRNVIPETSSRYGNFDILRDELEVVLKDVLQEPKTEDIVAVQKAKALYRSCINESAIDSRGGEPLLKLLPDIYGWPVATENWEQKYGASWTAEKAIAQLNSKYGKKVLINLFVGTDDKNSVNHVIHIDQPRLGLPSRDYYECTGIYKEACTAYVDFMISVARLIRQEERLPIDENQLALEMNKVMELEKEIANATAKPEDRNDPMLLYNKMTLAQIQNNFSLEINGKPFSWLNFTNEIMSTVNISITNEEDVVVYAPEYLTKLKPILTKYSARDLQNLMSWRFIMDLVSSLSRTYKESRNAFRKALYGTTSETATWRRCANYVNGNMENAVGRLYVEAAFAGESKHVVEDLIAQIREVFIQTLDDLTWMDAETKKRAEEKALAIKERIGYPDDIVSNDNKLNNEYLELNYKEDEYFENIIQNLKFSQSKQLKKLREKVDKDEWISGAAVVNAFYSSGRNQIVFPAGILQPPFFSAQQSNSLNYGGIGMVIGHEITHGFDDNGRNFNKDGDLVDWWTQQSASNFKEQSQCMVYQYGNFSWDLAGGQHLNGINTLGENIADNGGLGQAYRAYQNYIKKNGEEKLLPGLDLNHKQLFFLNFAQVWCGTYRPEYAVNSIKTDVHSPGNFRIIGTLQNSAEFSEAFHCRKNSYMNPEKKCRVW

IC50 [1]: ≤ 0.1 µM | Ki [2]: < 0.1 µM
Structure (SMILES): CCCc1nc2c(C)cc(C(=O)N[C@@H](CC(=O)NO)Cc3ccccc3)cc2n1Cc1ccc(-c2ccccc2C(=O)O)cc1 [Example 1, 4′-[6-((R)-1-Benzyl-2-hydroxycarbamoylethylcarbamoyl)-4-methyl-2-propylbenzoimidazol-1-ylmethyl]biphenyl-2-carboxylic Acid]
